Experimental data as given in US10370343B2, “[6,6] Fused bicyclic HDAC8 inhibitors” (FORMA Therapeutics, Inc., priority 2015, dated 2019).
pIC50: −log10 of the molar value.

Assays:
[1] = biological target: T1, Recombinant N-terminal GST tag full-length human HDAC8 (Homo sapiens, UniProt Q9BY41); assay: HDAC8 probe binding assay, time resolved fluorescence (TRF) format; conditions: compounds grouped by IC50 range (Table 2)
T1 construct: Recombinant N-terminal GST tag full-length human HDAC8; purchased SignalChem H90-30G-1000; host or cells: baculovirus in Sf9 insect cells
T1 sequence (Q9BY41 1-377): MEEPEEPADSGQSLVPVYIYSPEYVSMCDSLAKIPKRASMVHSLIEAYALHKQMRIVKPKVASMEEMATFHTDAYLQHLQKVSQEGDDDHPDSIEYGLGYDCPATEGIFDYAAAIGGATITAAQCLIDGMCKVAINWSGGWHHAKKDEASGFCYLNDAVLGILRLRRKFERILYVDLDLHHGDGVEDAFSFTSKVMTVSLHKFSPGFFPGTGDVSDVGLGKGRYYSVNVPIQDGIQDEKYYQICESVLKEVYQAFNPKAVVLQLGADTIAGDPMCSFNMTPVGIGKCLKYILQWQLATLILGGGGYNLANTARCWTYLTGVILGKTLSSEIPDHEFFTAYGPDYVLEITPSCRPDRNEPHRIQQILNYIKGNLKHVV
Procedure, shortened: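 Probe-binding TRF assay using full-length N-GST human HDAC8 expressed in baculovirus-infected Sf9 cells, incubated 16 h at room temperature and read at 340 nm excitation, 485/535 nm emission. Percent inhibition was normalised to no-enzyme and DMSO controls. IC50 was obtained by 4-parameter logistic fit.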

[2] = biological target: T2, Full length human recombinant HDAC8 protein (Homo sapiens, UniProt Q9BY41); assay: In vitro histone deacetylase assay: enzymatic HDAC8 electrophoretic mobility shift assay; type: biochemical; conditions: electrophoretic mobility shift assay; enzyme 1 nM; 2 μM fluorescently labeled peptide substrate RHKK(Ac)-NH2; 25° C.; 12 concentrations; read-out: HDAC8 IC50
T2 construct: Full length human recombinant HDAC8 protein was expressed in baculoviral system; made in house
T2 sequence (Q9BY41 1-377): T1 sequence (Q9BY41 1-377)

pIC50 [1]	pIC50 [2]	Compound
7.00 to 7.60	7.00 to 7.60	O=C(NO)c1ccc2c(c1)N(CC1CCCCC1)C(=O)CO2 [Compound I-149, 4-(cyclohexylmethyl)-N-hydroxy-3-oxo-3,4-dihydro-2H-benzo[b][1,4]oxazine-6-carboxamide]
≥ 7.60	> 7.60	COc1ccc(CN2C(=O)C(C)Oc3ccc(C(=O)NO)cc32)cc1 (centres unmarked) [Compound I-151, N-hydroxy-4-(4-methoxybenzyl)-2-methyl-3-oxo-3,4-dihydro-2H-benzo[b][1,4]oxazine-6-carboxamide]
≥ 7.60	> 7.60	CC1Oc2ccc(C(=O)NO)cc2N(Cc2ccc(S(C)(=O)=O)cc2)C1=O (centres unmarked) [Compound I-152, N-hydroxy-2-methyl-4-(4-(methylsulfonyl)benzyl)-3-oxo-3,4-dihydro-2H-benzo[b][1,4]oxazine-6-carboxamide]
7.00 to 7.60	7.00 to 7.60	CC1COc2ccc(C(=O)NO)cc2N1Cc1ccccc1 (centres unmarked) [Compound I-154, 4-benzyl-N-hydroxy-3-methyl-3,4-dihydro-2H-benzo[b][1,4]oxazine-6-carboxamide]
7.00 to 7.60	7.00 to 7.60	COc1ccc(CN2C(=O)C3(CCC3)Oc3ccc(C(=O)NO)cc32)cc1 [Compound I-157, N-hydroxy-4-(4-methoxybenzyl)-3-oxo-3,4-dihydrospiro[benzo[b][1,4]oxazine-2,1′-cyclobutane]-6-carboxamide]
≥ 7.60	> 7.60	COc1ccc(CN2C(=O)C(C)(C)Oc3ccc(C(=O)NO)cc32)c(F)c1 [Compound I-160, 4-(2-fluoro-4-methoxybenzyl)-N-hydroxy-2,2-dimethyl-3-oxo-3,4-dihydro-2H-benzo[b][1,4]oxazine-6-carboxamide]
≥ 7.60	> 7.60	CC1(C)Oc2ccc(C(=O)NO)cc2N(Cc2ccc(Cl)cc2F)C1=O [Compound I-161, 4-(4-chloro-2-fluorobenzyl)-N-hydroxy-2,2-dimethyl-3-oxo-3,4-dihydro-2H-benzo[b][1,4]oxazine-6-carboxamide]
≥ 7.60	> 7.60	Cc1ccc2nc(CN3C(=O)COc4ccc(C(=O)NO)cc43)oc2c1 [Compound I-213, N-hydroxy-4-((6-methylbenzo[d]oxazol-2-yl)methyl)-3-oxo-3,4-dihydro-2H-benzo[b][1,4]oxazine-6-carboxamide]
7.00 to 7.60	7.00 to 7.60	O=C(NO)c1ccc2c(c1)N(Cc1cn3ccccc3n1)C(=O)CO2 [Compound I-216, N-hydroxy-4-(imidazo[1,2-a]pyridin-2-ylmethyl)-3-oxo-3,4-dihydro-2H-benzo[b][1,4]oxazine-6-carboxamide]
≥ 7.60	> 7.60	O=C(NO)c1ccc2c(c1)N(Cc1nc3cc(F)ccc3o1)C(=O)CO2 [Compound I-217, 4-((5-fluorobenzo[d]oxazol-2-yl)methyl)-N-hydroxy-3-oxo-3,4-dihydro-2H-benzo[b][1,4]oxazine-6-carboxamide]
≥ 7.60	> 7.60	O=C(NO)c1ccc2c(c1)N(Cc1nc3ccc(F)cc3o1)C(=O)CO2 [Compound I-218, 4-((6-fluorobenzo[d]oxazol-2-yl)methyl)-N-hydroxy-3-oxo-3,4-dihydro-2H-benzo[b][1,4]oxazine-6-carboxamide]
≥ 7.60	> 7.60	O=C(NO)c1ccc2c(c1)N(Cc1ccc(-c3ncco3)cc1)C(=O)CO2 [Compound I-221, N-hydroxy-4-(4-(oxazol-2-yl)benzyl)-3-oxo-3,4-dihydro-2H-benzo[b][1,4]oxazine-6-carboxamide]
≥ 7.60	> 7.60	O=C(NO)c1ccc2c(c1)N(Cc1ccn(-c3ccccc3)n1)C(=O)CO2 [Compound I-222, N-hydroxy-3-oxo-4-((1-phenyl-1H-pyrazol-3-yl)methyl)-3,4-dihydro-2H-benzo[b][1,4]oxazine-6-carboxamide]
≥ 7.60	> 7.60	O=C(NO)c1ccc2c(c1)N(Cc1cnn(-c3ccccc3)c1)C(=O)CO2 [Compound I-223, N-hydroxy-3-oxo-4-((1-phenyl-1H-pyrazol-4-yl)methyl)-3,4-dihydro-2H-benzo[b][1,4]oxazine-6-carboxamide]
≥ 7.60	> 7.60	O=C(NO)c1ccc2c(c1)N(Cc1ccc(-n3cccn3)cc1)C(=O)CO2 [Compound I-224, 4-(4-(1H-pyrazol-1-yl)benzyl)-N-hydroxy-3-oxo-3,4-dihydro-2H-benzo[b][1,4]oxazine-6-carboxamide]
≥ 7.60	> 7.60	COc1ccc(CN2C(=O)COc3ccc(C(=O)NO)cc32)c(Cl)c1 [Compound I-242, 4-(2-chloro-4-methoxybenzyl)-N-hydroxy-3-oxo-3,4-dihydro-2H-benzo[b][1,4]oxazine-6-carboxamide]

pIC50 [1]	pIC50 [2]	Compound
≥ 7.60	> 7.60	COc1ccc(CN2C(=O)COc3ccc(C(=O)NO)cc32)cc1Cl [Compound I-243, 4-(3-chloro-4-methoxybenzyl)-N-hydroxy-3-oxo-3,4-dihydro-2H-benzo[b][1,4]oxazine-6-carboxamide]
7.00 to 7.60	> 7.60	COc1ccc(CN2C(=O)COc3ccc(C(=O)NO)cc32)cc1C [Compound I-244, N-hydroxy-4-(4-methoxy-3-methylbenzyl)-3-oxo-3,4-dihydro-2H-benzo[b][1,4]oxazine-6-carboxamide]
≥ 7.60	> 7.60	COc1ccc(CN2C(=O)COc3ccc(C(=O)NO)cc32)cc1F [Compound I-245, 4-(3-fluoro-4-methoxybenzyl)-N-hydroxy-3-oxo-3,4-dihydro-2H-benzo[b][1,4]oxazine-6-carboxamide]
≥ 7.60	> 7.60	COc1ccc(CN2C(=O)COc3ccc(C(=O)NO)cc32)cc1C(F)(F)F [Compound I-246, N-hydroxy-4-(4-methoxy-3-(trifluoromethyl)benzyl)-3-oxo-3,4-dihydro-2H-benzo[b][1,4]oxazine-6-carboxamide]
≥ 7.60	> 7.60	COc1ccc(CN2C(=O)COc3ccc(C(=O)NO)cc32)c(F)c1F [Compound I-247, 4-(2,3-difluoro-4-methoxybenzyl)-N-hydroxy-3-oxo-3,4-dihydro-2H-benzo[b][1,4]oxazine-6-carboxamide]
≥ 7.60	> 7.60	COc1cc(F)c(CN2C(=O)COc3ccc(C(=O)NO)cc32)c(F)c1 [Compound I-248, 4-(2,6-difluoro-4-methoxybenzyl)-N-hydroxy-3-oxo-3,4-dihydro-2H-benzo[b][1,4]oxazine-6-carboxamide]
7.00 to 7.60	6.00 to 7.00	COc1ccc(CN2C(=O)COc3ccc(C(=O)NO)cc32)c(C(F)(F)F)c1 [Compound I-249, N-hydroxy-4-(4-methoxy-2-(trifluoromethyl)benzyl)-3-oxo-3,4-dihydro-2H-benzo[b][1,4]oxazine-6-carboxamide]
7.00 to 7.60	7.00 to 7.60	CCOc1c(F)cc(CN2C(=O)COc3ccc(C(=O)NO)cc32)cc1F [Compound I-250, 4-(4-ethoxy-3,5-difluorobenzyl)-N-hydroxy-3-oxo-3,4-dihydro-2H-benzo[b][1,4]oxazine-6-carboxamide]
≥ 7.60	> 7.60	O=C(NO)c1ccc2c(c1)N(Cc1ccc(-c3ccccc3)cc1)C(=O)CO2 [Compound I-251, 4-([1,1′-biphenyl]-4-ylmethyl)-N-hydroxy-3-oxo-3,4-dihydro-2H-benzo[b][1,4]oxazine-6-carboxamide]
≥ 7.60	> 7.60	O=C(NO)c1ccc2c(c1)N(Cc1cc(Cl)ccc1Cl)C(=O)CO2 [Compound I-252, 4-(2,5-dichlorobenzyl)-N-hydroxy-3-oxo-3,4-dihydro-2H-benzo[b][1,4]oxazine-6-carboxamide]
7.00 to 7.60	7.00 to 7.60	O=C(NO)c1ccc2c(c1)N(Cc1c(Cl)cccc1Cl)C(=O)CO2 [Compound I-253, 4-(2,6-dichlorobenzyl)-N-hydroxy-3-oxo-3,4-dihydro-2H-benzo[b][1,4]oxazine-6-carboxamide]
≥ 7.60	> 7.60	O=C(NO)c1ccc2c(c1)N(Cc1cccc(Cl)c1Cl)C(=O)CO2 [Compound I-254, 4-(2,3-dichlorobenzyl)-N-hydroxy-3-oxo-3,4-dihydro-2H-benzo[b][1,4]oxazine-6-carboxamide]
≥ 7.60	7.00 to 7.60	O=C(NO)c1ccc2c(c1)N(Cc1nc(-c3ccccc3)sc1Cl)C(=O)CO2 [Compound I-255, 4-((5-chloro-2-phenylthiazol-4-yl)methyl)-N-hydroxy-3-oxo-3,4-dihydro-2H-benzo[b][1,4]oxazine-6-carboxamide]
≥ 7.60	> 7.60	O=C(NO)c1ccc2c(c1)N(Cc1ccc(Cl)cc1Cl)C(=O)CO2 [Compound I-256, 4-(2,4-dichlorobenzyl)-N-hydroxy-3-oxo-3,4-dihydro-2H-benzo[b][1,4]oxazine-6-carboxamide]
≥ 7.60	> 7.60	O=C(NO)c1ccc2c(c1)N(Cc1ccc(Cl)c(Cl)c1)C(=O)CO2 [Compound I-258, 4-(3,4-dichlorobenzyl)-N-hydroxy-3-oxo-3,4-dihydro-2H-benzo[b][1,4]oxazine-6-carboxamide]
